Assay results as given in ChEMBL document CHEMBL4311999, “3-Hydrazinoisatin-based benzenesulfonamides as novel carbonic anhydrase inhibitors endowed with anticancer activity: Synthesis, in vitro biological evaluation and in silico insights” (Eur J Med Chem, 2019).

Legend:
[1] = system: HCT-15; assay: Growth inhibition of human HCT15 cells at 10 uM incubated for 48 hrs by sulforhodamine B assay relative to control; format: functional; details: HCT-15, 48 h, read-out: GI
[2] = system: KM12; assay: Growth inhibition of human KM12 cells at 10 uM incubated for 48 hrs by sulforhodamine B assay relative to control; format: functional; details: KM12, 48 h, read-out: GI
[3] = system: DU-145; assay: Growth inhibition of human DU145 cells at 10 uM incubated for 48 hrs by sulforhodamine B assay relative to control; format: functional; details: DU-145, 48 h, read-out: GI
[4] = system: OVCAR-8; assay: Growth inhibition of human OVCAR8 cells at 10 uM incubated for 48 hrs by sulforhodamine B assay relative to control; format: functional; details: OVCAR-8, 48 h, read-out: GI
[5] = system: RXF 393; assay: Growth inhibition of human RXF393 cells at 10 uM incubated for 48 hrs by sulforhodamine B assay relative to control; format: functional; details: RXF 393, 48 h, read-out: GI
[6] = system: A549; assay: Growth inhibition of human A549/ATCC cells at 10 uM incubated for 48 hrs by sulforhodamine B assay relative to control; format: functional; details: A549, 48 h, read-out: GI
[7] = system: U-251; assay: Growth inhibition of human U251 cells at 10 uM incubated for 48 hrs by sulforhodamine B assay relative to control; format: functional; details: U-251, 48 h, read-out: GI
[8] = system: ACHN; assay: Growth inhibition of human ACHN cells at 10 uM incubated for 48 hrs by sulforhodamine B assay relative to control; format: functional; details: read-out: GI
[9] = system: HCT-116; assay: Growth inhibition of human HCT116 cells at 10 uM incubated for 48 hrs by sulforhodamine B assay relative to control; format: functional; details: HCT-116, 48 h, read-out: GI
[10] = system: UACC-257; assay: Growth inhibition of human UACC257 cells at 10 uM incubated for 48 hrs by sulforhodamine B assay relative to control; format: functional; details: UACC-257, 48 h, read-out: GI
[11] = system: PC-3; assay: Growth inhibition of human PC3 cells at 10 uM incubated for 48 hrs by sulforhodamine B assay relative to control; format: functional; details: PC-3, 48 h, read-out: GI
[12] = system: A498; assay: Growth inhibition of human A498 cells at 10 uM incubated for 48 hrs by sulforhodamine B assay relative to control; format: functional; details: A498, 48 h, read-out: GI
[13] = system: TK-10; assay: Growth inhibition of human TK10 cells at 10 uM incubated for 48 hrs by sulforhodamine B assay relative to control; format: functional; details: TK-10, 48 h, read-out: GI
[14] = system: NCI-H460; assay: Growth inhibition of human NCI-H460 cells at 10 uM incubated for 48 hrs by sulforhodamine B assay relative to control; format: functional; details: NCI-H460, 48 h, read-out: GI
[15] = system: MDA-MB-231; assay: Growth inhibition of human MDA-MB-231 cells at 10 uM incubated for 48 hrs by sulforhodamine B assay relative to control; format: functional; details: MDA-MB-231, 48 h, read-out: GI
[16] = system: HT-29; assay: Growth inhibition of human HT-29 cells at 10 uM incubated for 48 hrs by sulforhodamine B assay relative to control; format: functional; details: HT-29, 48 h, read-out: GI
[17] = system: NCI/ADR-RES; assay: Growth inhibition of human NCI/ADR-RES cells at 10 uM incubated for 48 hrs by sulforhodamine B assay relative to control; format: functional; details: read-out: GI
[18] = system: SW-620; assay: Growth inhibition of human SW620 cells at 10 uM incubated for 48 hrs by sulforhodamine B assay relative to control; format: functional; details: SW-620, 48 h, read-out: GI
[19] = system: SK-MEL-5; assay: Growth inhibition of human SK-MEL-5 cells at 10 uM incubated for 48 hrs by sulforhodamine B assay relative to control; format: functional; details: SK-MEL-5, 48 h, read-out: GI
[20] = system: EKVX; assay: Growth inhibition of human EKVX cells at 10 uM incubated for 48 hrs by sulforhodamine B assay relative to control; format: functional; details: read-out: GI
[21] = system: MCF7; assay: Growth inhibition of human MCF7 cells at 10 uM incubated for 48 hrs by sulforhodamine B assay relative to control; format: functional; details: MCF7, 48 h, read-out: GI
[22] = system: SN12C; assay: Growth inhibition of human SN12C cells at 10 uM incubated for 48 hrs by sulforhodamine B assay relative to control; format: functional; details: read-out: GI
[23] = system: CAKI-1; assay: Growth inhibition of human Caki1 cells at 10 uM incubated for 48 hrs by sulforhodamine B assay relative to control; format: functional; details: CAKI-1, 48 h, read-out: GI
[24] = system: T47D; assay: Growth inhibition of human T47D cells at 10 uM incubated for 48 hrs by sulforhodamine B assay relative to control; format: functional; details: read-out: GI
[25] = system: UO-31; assay: Growth inhibition of human UO31 cells at 10 uM incubated for 48 hrs by sulforhodamine B assay relative to control; format: functional; details: UO-31, 48 h, read-out: GI
[26] = system: NCI-H226; assay: Growth inhibition of human NCI-H226 cells at 10 uM incubated for 48 hrs by sulforhodamine B assay relative to control; format: functional; details: NCI-H226, 48 h, read-out: GI
[27] = system: 786-0; assay: Growth inhibition of human 786-0 cells at 10 uM incubated for 48 hrs by sulforhodamine B assay relative to control; format: functional; details: 786-0, 48 h, read-out: GI
[28] = system: HOP-92; assay: Growth inhibition of human HOP92 cells at 10 uM incubated for 48 hrs by sulforhodamine B assay relative to control; format: functional; details: HOP-92, 48 h, read-out: GI
[29] = system: CCRF-CEM; assay: Growth inhibition of human CCRF-CEM cells at 10 uM incubated for 48 hrs by sulforhodamine B assay relative to control; format: functional; details: read-out: GI
[30] = system: SNB-19; assay: Growth inhibition of human SNB19 cells at 10 uM incubated for 48 hrs by sulforhodamine B assay relative to control; format: functional; details: SNB-19, 48 h, read-out: GI
[31] = system: SK-MEL-2; assay: Growth inhibition of human SK-MEL-2 cells at 10 uM incubated for 48 hrs by sulforhodamine B assay relative to control; format: functional; details: SK-MEL-2, 48 h, read-out: GI
[32] = molecular target: T1, Carbonic anhydrase 9 (Homo sapiens, UniProt Q16790); assay: Inhibition of recombinant human carbonic anhydrase 9 preincubated for 15 mins by phenol red dye based stopped flow CO2 hydration assay
[33] = system: NCI-H522; assay: Growth inhibition of human NCI-H522 cells at 10 uM incubated for 48 hrs by sulforhodamine B assay relative to control; format: functional; details: NCI-H522, 48 h, read-out: GI
[34] = system: OVCAR-4; assay: Growth inhibition of human OVCAR4 cells at 10 uM incubated for 48 hrs by sulforhodamine B assay relative to control; format: functional; details: OVCAR-4, 48 h, read-out: GI
[35] = system: UACC-62; assay: Growth inhibition of human UACC62 cells at 10 uM incubated for 48 hrs by sulforhodamine B assay relative to control; format: functional; details: UACC-62, 48 h, read-out: GI
[36] = system: BT-549; assay: Growth inhibition of human BT549 cells at 10 uM incubated for 48 hrs by sulforhodamine B assay relative to control; format: functional; details: BT-549, 48 h, read-out: GI
[37] = system: MDA-MB-468; assay: Growth inhibition of human MDA-MB-468 cells at 10 uM incubated for 48 hrs by sulforhodamine B assay relative to control; format: functional; details: MDA-MB-468, 48 h, read-out: GI
[38] = system: RPMI-8226; assay: Growth inhibition of human RPMI8226 cells at 10 uM incubated for 48 hrs by sulforhodamine B assay relative to control; format: functional; details: RPMI-8226, 48 h, read-out: GI
[39] = system: MOLT-4; assay: Growth inhibition of human MOLT4 cells at 10 uM incubated for 48 hrs by sulforhodamine B assay relative to control; format: functional; details: MOLT-4, 48 h, read-out: GI
[40] = system: OVCAR-5; assay: Growth inhibition of human OVCAR5 cells at 10 uM incubated for 48 hrs by sulforhodamine B assay relative to control; format: functional; details: OVCAR-5, 48 h, read-out: GI
[41] = molecular target: Carbonic anhydrase 1 (Homo sapiens, UniProt P00915); assay: Inhibition of recombinant human carbonic anhydrase 1 preincubated for 15 mins by phenol red dye based stopped flow CO2 hydration assay
Chain of Carbonic anhydrase 1 (P00915 whole entry): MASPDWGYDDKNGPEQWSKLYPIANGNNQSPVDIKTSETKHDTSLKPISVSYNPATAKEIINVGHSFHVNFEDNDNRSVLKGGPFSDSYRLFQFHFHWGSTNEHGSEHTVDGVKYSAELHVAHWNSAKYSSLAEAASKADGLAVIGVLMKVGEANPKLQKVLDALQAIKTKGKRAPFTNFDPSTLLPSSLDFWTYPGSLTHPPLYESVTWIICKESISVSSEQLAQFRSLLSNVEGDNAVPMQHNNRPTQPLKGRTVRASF

[42] = system: SR; assay: Growth inhibition of human SR cells at 10 uM incubated for 48 hrs by sulforhodamine B assay relative to control; format: functional; details: read-out: GI
[43] = system: Hs-578T; assay: Growth inhibition of human Hs 578T cells at 10 uM incubated for 48 hrs by sulforhodamine B assay relative to control; format: functional; details: read-out: GI
[44] = system: SNB-75; assay: Growth inhibition of human SNB75 cells at 10 uM incubated for 48 hrs by sulforhodamine B assay relative to control; format: functional; details: SNB-75, 48 h, read-out: GI
[45] = system: SF-539; assay: Growth inhibition of human SF539 cells at 10 uM incubated for 48 hrs by sulforhodamine B assay relative to control; format: functional; details: SF-539, 48 h, read-out: GI
[46] = system: SF-268; assay: Growth inhibition of human SF268 cells at 10 uM incubated for 48 hrs by sulforhodamine B assay relative to control; format: functional; details: SF-268, 48 h, read-out: GI
[47] = molecular target: T1, Carbonic anhydrase 9; assay: Inhibition of human recombinant carbonic anhydrase 9 by stopped flow CO2 hydration assay

Row | Structure (SMILES) | inhibition of growth at 10 µM [4] | inhibition of growth at 10 µM [5] | inhibition of growth at 10 µM [6] | inhibition of growth at 10 µM [8] | inhibition of growth at 10 µM [9] | inhibition of growth at 10 µM [11] | inhibition of growth at 10 µM [14] | inhibition of growth at 10 µM [15] | inhibition of growth at 10 µM [17] | inhibition of growth at 10 µM [19] | inhibition of growth at 10 µM [21] | inhibition of growth at 10 µM [23] | inhibition of growth at 10 µM [24] | inhibition of growth at 10 µM [25] | inhibition of growth at 10 µM [26] | inhibition of growth at 10 µM [27] | inhibition of growth at 10 µM [29] | inhibition of growth at 10 µM [30] | Ki [32] | inhibition of growth at 10 µM [33] | further results
1 | NS(=O)(=O)c1ccc(N/N=C2\C(=O)N(Cc3ccccc3)c3ccccc32)cc1 | 17% | 10% | 25% | 14% | 28% | 25% | 20% | 19% | 20% | 12% | 21% | 20% | 42% | 38% | 21% | 22% | 36% | 13% | 27.7 nM | 46% | inhibition of growth at 10 µM [1]: 13%; inhibition of growth at 10 µM [2]: 10%; inhibition of growth at 10 µM [3]: 10%; inhibition of growth at 10 µM [7]: 17%; inhibition of growth at 10 µM [10]: 11%; inhibition of growth at 10 µM [12]: 10%; inhibition of growth at 10 µM [13]: 19%; inhibition of growth at 10 µM [16]: 21%; inhibition of growth at 10 µM [18]: 18%; inhibition of growth at 10 µM [20]: 13%; inhibition of growth at 10 µM [22]: 19%; inhibition of growth at 10 µM [28]: 34%; inhibition of growth at 10 µM [31]: 13%; inhibition of growth at 10 µM [34]: 21%; inhibition of growth at 10 µM [35]: 37%; inhibition of growth at 10 µM [36]: 16%; inhibition of growth at 10 µM [37]: 27%; inhibition of growth at 10 µM [38]: 38%
2 | NS(=O)(=O)c1ccc(N/N=C2\C(=O)N(Cc3ccccc3)c3ccc(Br)cc32)cc1 | 26% | 38% | 19% | 22% | 24% | 21% | 20% | 23% | 13% | 17% | 23% | 18% | 19% | 18% | 33% | 19% | 19% | 27% | 60.5 nM | 29% | inhibition of growth at 10 µM [39]: 21%; inhibition of growth at 10 µM [40]: 12%; Ki [41]: > 10000 nM; inhibition of growth at 10 µM [42]: 20%; inhibition of growth at 10 µM [43]: 27%; inhibition of growth at 10 µM [44]: 46%; inhibition of growth at 10 µM [45]: 25%; inhibition of growth at 10 µM [34]: 19%; inhibition of growth at 10 µM [46]: 13%; inhibition of growth at 10 µM [35]: 30%; inhibition of growth at 10 µM [37]: 13%; inhibition of growth at 10 µM [38]: 10%
3 | NS(=O)(=O)c1ccc(CC/N=C2\NC(=O)/C(=C3/C(=O)Nc4ccc(F)cc43)S2)cc1 | – | – | – | – | – | – | – | – | – | – | – | – | – | – | – | – | – | – | – | – | Ki [47]: 287 nM
